For two molecules, inhibition results are on record in patent US8580288B2, “Agricultural or horticultural fungicide composition and its use for controlling plant pathogens” (Ishihara Sangyo Kaisha, Ltd, priority 2009, dated 2013).

Where two headings read alike, the source gives them in different places.

One test relates to Pythium aristosporum. Briefly: Inhibition test of mycelial growth against Pythium aristosporum. It is filed as cell-based. As to conditions: 48 h, PSA, 2 days, 20° C., read-out: Inhibition Rate of Mycelial Growth against Pythium aristosporum. As to the method: (§1) Pythium aristosporum was precultured. And the obtained hyphae (4 mm in diameter) was transplanted on potato sucrose agar medium (PSA) including an agent at a predetermined concentration, and then cultured for two days at room temperature of 20° C., followed by measuring a diameter of the mycelial colony to obtain an inhibition rate of mycelial growth. In addition, a theoretical value of the inhibition rate was calculated using Colby's formula and listed in parentheses of Table 1.

Another test has as its system Pythium aphanidermatum. Briefly: Inhibition test of mycelial growth against Pythium aphanidermatum. Format: cell-based. As to conditions: read-out: Inhibition Rate of Mycelial Growth against Pythium aphanidermatum. As to the method: [Worded in the source for another organism; this organism is reported under the same test.] as §1, with “growth. The inhibition rate of mycelial growth was obtained by measuring a diameter of mycelial colony in the same manner as Test Example 1.” for “growth.”, “2.” for “1.”

[1] abbreviates: Folpet 0.1 ppm alone (Cyazofamid 0 ppm).
[2] abbreviates: Folpet 1 ppm alone (Cyazofamid 0 ppm).
Setting [3] is: Folpet 10 ppm alone (Cyazofamid 0 ppm).
The mark [4] stands for this setting: Folpet 100 ppm alone (Cyazofamid 0 ppm).
The mark [5] stands for this setting: Cyazofamid 0.1 ppm alone (Folpet 0 ppm).
[6] abbreviates: Cyazofamid 1 ppm alone (Folpet 0 ppm).
Where [7] appears, read: Cyazofamid 10 ppm alone (Folpet 0 ppm).
[8] abbreviates: Cyazofamid 100 ppm alone (Folpet 0 ppm).

Take `O=C1c2ccccc2C(=O)N1SC(Cl)(Cl)Cl` [Folpet, N-(trichloromethanesulphenyl)phthalimide]: the values for the inhibition at 0.1 ppm in the test with Pythium aristosporum (setting [1]) and in the test on Pythium aphanidermatum (setting [1]) were 3% and 2%, respectively. In addition, the inhibition at 1 ppm in the test on Pythium aristosporum (setting [2]) was 3%; in the test on Pythium aphanidermatum (setting [2]) it was 0%. The inhibition at 10 ppm in the test on Pythium aristosporum (setting [3]) was determined as 45%; in the test on Pythium aphanidermatum (setting [3]) it was 62%. The inhibition at 100 ppm in the test on Pythium aristosporum (setting [4]) turned out to be 90%; in the test on Pythium aphanidermatum (setting [4]) it was 80%.

`Cc1ccc(-c2c(Cl)nc(C#N)n2S(=O)(=O)N(C)C)cc1` [Cyazofamid, 4-chloro-2-cyano-1-dimethylsulfamoyl-5-(4-methylphenyl)imidazole]: the inhibition at 0.1 ppm in the test on Pythium aristosporum (setting [5]) was determined as 17%; in the test with Pythium aphanidermatum (setting [5]) it was 54%. Further, the values for the inhibition at 1 ppm in the test with Pythium aristosporum (setting [6]) and in the test on Pythium aphanidermatum (setting [6]) were 38% and 52%, respectively. In addition, the inhibition at 10 ppm in the test on Pythium aristosporum (setting [7]) was found to be 38%; in the test on Pythium aphanidermatum (setting [7]) it was 60%. The inhibition at 100 ppm with Pythium aristosporum (setting [8]) was 41%; in the test with Pythium aphanidermatum (setting [8]) it was 80%.

By inhibition is commonly meant the percentage by which the read-out fell short of the control.
